Measured values published in the NIST ThermoML archive (doi:10.1016/j.jct.2015.11.027).
Numbers after ± are expanded uncertainties.

Settings: Liquid, Vibrating wire viscometry

Cc1ccccc1C [1,2-dimethylbenzene]
Settings | viscosity [mPa·s]
273.48 K, 100 kPa | 1.102 ± 0.024
273.48 K, 1000 kPa | 1.113 ± 0.024
273.48 K, 5000 kPa | 1.154 ± 0.025
273.48 K, 10000 kPa | 1.209 ± 0.026
273.48 K, 15000 kPa | 1.264 ± 0.027
273.48 K, 20000 kPa | 1.319 ± 0.028
273.48 K, 25000 kPa | 1.378 ± 0.03
273.48 K, 30000 kPa | 1.436 ± 0.031
283.21 K, 10000 kPa | 1.031 ± 0.023
283.21 K, 15000 kPa | 1.075 ± 0.023
283.21 K, 20000 kPa | 1.121 ± 0.024
283.21 K, 25000 kPa | 1.169 ± 0.025
283.21 K, 30000 kPa | 1.216 ± 0.026
283.22 K, 100 kPa | 0.9464 ± 0.021
283.22 K, 1000 kPa | 0.9529 ± 0.021
283.22 K, 5000 kPa | 0.9859 ± 0.022
293.04 K, 100 kPa | 0.8196 ± 0.018
293.04 K, 1000 kPa | 0.8252 ± 0.018
293.04 K, 5000 kPa | 0.8535 ± 0.019
293.04 K, 10000 kPa | 0.8901 ± 0.019
293.05 K, 15000 kPa | 0.9269 ± 0.02
293.05 K, 20000 kPa | 0.9685 ± 0.021
293.05 K, 25000 kPa | 1.006 ± 0.022
293.06 K, 30000 kPa | 1.048 ± 0.023
302.87 K, 100 kPa | 0.7178 ± 0.016
302.87 K, 1000 kPa | 0.7228 ± 0.016
302.87 K, 20000 kPa | 0.8457 ± 0.019
302.87 K, 25000 kPa | 0.879 ± 0.019
302.87 K, 30000 kPa | 0.9126 ± 0.02
302.88 K, 5000 kPa | 0.7489 ± 0.017
302.88 K, 10000 kPa | 0.7794 ± 0.017
302.88 K, 15000 kPa | 0.8128 ± 0.018
312.66 K, 100 kPa | 0.6371 ± 0.014
312.66 K, 10000 kPa | 0.6901 ± 0.015
312.66 K, 20000 kPa | 0.7486 ± 0.017
312.66 K, 25000 kPa | 0.7781 ± 0.017
312.66 K, 30000 kPa | 0.8077 ± 0.018
312.67 K, 1000 kPa | 0.6414 ± 0.015
312.67 K, 5000 kPa | 0.6635 ± 0.015
312.67 K, 15000 kPa | 0.7185 ± 0.016
321.85 K, 100 kPa | 0.5744 ± 0.013
321.85 K, 1000 kPa | 0.5794 ± 0.013
321.85 K, 10000 kPa | 0.6241 ± 0.014
321.85 K, 15000 kPa | 0.6489 ± 0.015
321.85 K, 30000 kPa | 0.7248 ± 0.016
321.86 K, 5000 kPa | 0.5991 ± 0.014
321.86 K, 20000 kPa | 0.6748 ± 0.015
321.86 K, 25000 kPa | 0.6987 ± 0.016
332.47 K, 100 kPa | 0.515 ± 0.012
332.47 K, 1000 kPa | 0.5176 ± 0.012
332.48 K, 5000 kPa | 0.5347 ± 0.012
332.48 K, 10000 kPa | 0.5575 ± 0.013
332.48 K, 15000 kPa | 0.5798 ± 0.013
332.48 K, 20000 kPa | 0.6029 ± 0.014
332.48 K, 25000 kPa | 0.6273 ± 0.014
332.48 K, 30000 kPa | 0.6504 ± 0.015
343.06 K, 100 kPa | 0.4586 ± 0.011
343.07 K, 1000 kPa | 0.4624 ± 0.011
343.07 K, 5000 kPa | 0.4782 ± 0.011
343.07 K, 10000 kPa | 0.499 ± 0.012
343.08 K, 15000 kPa | 0.5195 ± 0.012
343.08 K, 25000 kPa | 0.5603 ± 0.013
343.08 K, 30000 kPa | 0.5817 ± 0.013
343.09 K, 20000 kPa | 0.5401 ± 0.012
353.01 K, 30000 kPa | 0.5312 ± 0.012
353.02 K, 10000 kPa | 0.4549 ± 0.011
353.02 K, 15000 kPa | 0.4725 ± 0.011
353.02 K, 20000 kPa | 0.4922 ± 0.011
353.02 K, 25000 kPa | 0.5113 ± 0.012
353.03 K, 5000 kPa | 0.4342 ± 0.01
353.04 K, 100 kPa | 0.4177 ± 0.01
353.04 K, 1000 kPa | 0.4196 ± 0.01
362.85 K, 100 kPa | 0.3838 ± 0.0093
362.85 K, 1000 kPa | 0.3862 ± 0.0094
362.85 K, 5000 kPa | 0.4001 ± 0.0096
362.85 K, 10000 kPa | 0.4169 ± 0.01
362.86 K, 15000 kPa | 0.434 ± 0.01
362.86 K, 20000 kPa | 0.4506 ± 0.011
362.87 K, 25000 kPa | 0.469 ± 0.011
362.87 K, 30000 kPa | 0.4842 ± 0.011
372.83 K, 100 kPa | 0.3528 ± 0.0087
372.84 K, 1000 kPa | 0.3556 ± 0.0088
372.84 K, 5000 kPa | 0.3683 ± 0.009
372.85 K, 10000 kPa | 0.3831 ± 0.0093
372.85 K, 25000 kPa | 0.4324 ± 0.01
372.86 K, 15000 kPa | 0.4015 ± 0.0097
372.86 K, 20000 kPa | 0.4156 ± 0.0099
372.86 K, 30000 kPa | 0.4477 ± 0.011
